Measurements from patent publication US11952365B2, “Anti-viral compounds” (Aligos Therapeutics, Inc., priority 2020, dated 2024).
Read-outs that look alike come from different tables or passages of the source.

What was measured:
[1] = test system: SARS-CoV-2-GHB-03021/2020; experiment: SARS-CoV-2 Infection Model in Huh7 Cells; type: cell-based; conditions: Severe acute respiratory syndrome coronavirus 2, Huh-7, 96 h, SARS-CoV-2, day 4 p.i., MTS
[2] = test system: SARS-CoV-2-GHB-03021/2020; experiment: microbe, parasite or virus in culture; type: cell-based; conditions: Severe acute respiratory syndrome coronavirus 2, Vero C1008, 96 h; read-out: VeroE6 + CP (EC50)
in vitro [3] = conditions: African green monkey, VeroE6 + CP (CC50), Vero E6-eGFP cells with CP-100356, absence of virus, MTS
[4] = Cytotoxicity plates without OC43 virus (cell-titer-glo); type: cell-based, human; conditions: human; HeLa cells without OC43 virus, class symbols
How it was run: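 Run as a virus-free counterpart of the OC43 cytopathic-effect assay. Attached HeLa cells received compound dilutions in EMEM with 2% FBS and were kept 6 days at 33 °C. Cell viability was then measured by CellTiter-Glo luminescence.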

in vitro [5] = conditions: human
[6] = test system: human beta-coronavirus OC43; experiment: microbe, parasite or virus in culture; type: cell-based; conditions: Betacoronavirus 1, OC43, HeLa, 144 h, OC43 in HeLa cells, 6 days at 33° C., read-out: EC50
human cathepsin L = molecular target: T1, human cathepsin L (Homo sapiens, UniProt P07711); experiment: cathepsin L assay; type: biochemical; conditions: 10 pM human cathepsin L, Z-FR-AMC 2 μM, class symbols
T1 construct: purchased R&D Systems
How it was run: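 Reactions began by adding 2 μM (final) Z-FR-AMC substrate to 10 pM human cathepsin L that had been preincubated 30 min with inhibitor. Kinetic AMC fluorescence at 355/460 nm over 30 min at 2-min intervals; four-parameter fitting gave IC50 values.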

HRV3C = HRV3C (Human rhinovirus 14, UniProt P03303); experiment: HRV3C protease assay (duplex, SAMDI-MS); type: biochemical, HRV; conditions: 30 mins preincubation
How it was run: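 Compounds are preincubated 30 min with the protease pair before substrate addition, and cleavage proceeds 30 min at room temperature. Product peptides are measured by SAMDI-MS relative to internal standards, with IC50 obtained from a four-parameter fit.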

3CLpro = 3CLpro (Severe acute respiratory syndrome coronavirus 2, UniProt P0DTD1); experiment: SARS-CoV-2 3CLpro protease assay (duplex, SAMDI-MS); type: biochemical; design: For the duplex assay, 3CLpro and HRV3C was added; conditions: 3CLpro, 30 mins preincubation, class symbols; read-out: SARS-Cov-2 IC50
[7] = HRV3C, class symbols, read-out: HRV IC50
[8] = HRV3C, bound, read-out: HRV IC50

Row | Compound | EC50 ([1]; class symbols) [µM] | EC50 [2] [µM] | CC50 (in vitro [3]; numeric bounds) [µM] | CC50 at 6 days [4] [µM] | CC50 (in vitro [5]) [µM] | EC50 ([6]; class symbols) [µM] | IC50 (human cathepsin L) [µM] | IC50 (HRV3C; HRV IC50, HRV3C, class symbols) [µM] | IC50 (3CLpro) [µM] | CC50 (in vitro [3]; class symbols) [µM] | EC50 ([6]; bound) [µM] | IC50 (HRV3C; [7]) [µM] | EC50 ([1]; numeric bounds) [µM] | IC50 (HRV3C; [8]) [µM] | IC50 (HRV3C; HRV IC50, HRV3C, bound) [µM]
1 | COc1ccc2[nH]c(C(=O)N3CCC4(CC4)C[C@H]3C(=O)N[C@@H](C[C@@H]3CCNC3=O)C(=O)C(=O)NC3CC3)cc2c1 [Compound 171] | 1 to 10 | 1 to 10 | > 50 | > 10 | > 10 | 1 to 10 | ≥ 10 | 2 to 20 | 0.02 to 0.2 |  |  |  |  |  | 
2 | O=C1NCC[C@H]1C[C@H](NC(=O)[C@@H]1[C@H]2[C@H]3CC[C@H](C3)[C@H]2CN1C(=O)c1cc2c(Cl)cc(Cl)cc2[nH]1)C(=O)CO [Compound 135, (1S,3aR,4R,7S,7aS)-2-(4,6-dichloro-1H-indole-2-carbonyl)-N—((S)-4-hydroxy-3-oxo-1-((S)-2-oxopyrrolidin-3-yl)butan-2-yl)octahydro-1H-4,7-methanoisoindole-1-carboxamide] | < 1 | < 1 |  | > 10 | > 10 | 0.1 to 1 | ≥ 10 | 2 to 20 | 0.02 to 0.2 | > 10 |  |  |  |  | 
3 | COc1cccc2[nH]c(C(=O)N3C[C@@H]4CCC[C@@H]4[C@H]3C(=O)N[C@@H](C[C@@H]3CCNC3=O)C(=O)C(=O)N[C@@H]3CCOC3)cc12 [Compound 105] | 10 to 100 | 10 to 100 | > 100 | > 10 | > 100 |  | ≥ 10 |  | 0.02 to 0.2 |  | > 10 | 0.2 to 2 |  |  | 
4 | COc1cccc2[nH]c(C(=O)N3C[C@@H]4CCC[C@@H]4[C@H]3C(=O)N[C@@H](C[C@@H]3CCNC3=O)C(=O)C(=O)NCCO)cc12 [Compound 107, (1S, 3aR, 6aS)—N—((S)-4-((2-hydroxyethyl)amino)-3,4-dioxo-1-((S)-2-oxopyrrolidin-3-yl)butan-2-yl)-2-(4-methoxy-1H-indole-2-carbonyl)octahydrocyclopenta[c]pyrrole-1-carboxamide] | 10 to 100 | 10 to 100 | > 100 | > 10 | > 50 |  | ≥ 10 |  | < 0.02 |  | > 10 | 0.2 to 2 |  |  | 
5 | O=C[C@H](C[C@@H]1CCCNC1=O)NC(=O)[C@@H]1[C@H]2CCC[C@H]2CN1C(=O)c1cc2ccccc2[nH]1 [Compound 15, (1S,3aR,6aS)-2-(1H-indole-2-carbonyl)-N—((S)-1-oxo-3-((S)-2-oxopiperidin-3-yl)propan-2-yl)octahydrocyclopenta[c]pyrrole-1-carboxamide] | 1 to 10 | 1 to 10 | > 100 | > 10 | > 100 | 0.1 to 1 | 1 to 10 |  | < 0.02 |  |  | 0.02 to 0.2 |  |  | 
6 | CCOC(=O)c1cc(C(=O)N2C[C@@H]3CCC[C@@H]3[C@H]2C(=O)N[C@@H](C[C@@H]2CCNC2=O)C(=O)CO)[nH]c1C [Compound 85, ethyl 5-[(1S,3aR,6aS)-1-{[(2S)-4-hydroxy-3-oxo-1-[(3S)-2-oxopyrrolidin-3-yl]butan-2-yl]carbamoyl}-hexahydro-1H-cyclopenta[c]pyrrole-2-carbonyl]-2-methyl-1H-pyrrole-3-carboxylate] | 10 to 100 | 1 to 10 | > 50 | > 10 | > 50 | 1 to 10 | ≥ 10 |  | 0.02 to 0.2 |  |  | 2 to 20 |  |  | 
7 | COc1cccc2[nH]c(C(=O)N3C[C@@H]4CCC[C@@H]4[C@H]3C(=O)N[C@@H](CN3CC[C@H](O)C3=O)C(=O)C(=O)NC3CC3)cc12 [Compound 115, (1S,3aR,6aS)—N—((S)-4-(cyclopropylamino)-1-((S)-3-hydroxy-2-oxopyrrolidin-1-yl)-3,4-dioxobutan-2-yl)-2-(4-methoxy-1H-indole-2-carbonyl)octahydrocyclopenta[c]pyrrole-1-carboxamide] |  | > 50 | > 50 | > 10 | > 10 |  | ≥ 10 |  | 2 to 20 |  | > 10 |  | > 50 | > 10 | 
8 | COc1cccc2[nH]c(C(=O)N3C[C@@H]4CCC[C@@H]4[C@H]3C(=O)N[C@@H](C[C@@H]3CCNC3=O)C(=O)COP(=O)(O)O)cc12 [Compound 61, (3S)-3-1{[(1S,3aR,6aS)-2-(4-methoxy-1H-indole-2-carbonyl)-hexahydro-1H-cyclopenta[c]pyrrol-1-yl]formamido}-2-oxo-4-[(3S)-2-oxopyrrolidin-3-yl]butoxyphosphonic acid] | 1 to 10 | 1 to 10 | > 100 | > 10 | > 100 | 0.1 to 1 | ≥ 10 |  | 0.2 to 2 |  |  |  |  | > 10 | 
9 | Cn1c(C(=O)N2CCC3(CC3)C[C@H]2C(=O)N[C@@H](C[C@@H]2CCNC2=O)C(=O)C(=O)NC2CC2)cc2ccccc21 [Compound 172] | < 1 | < 1 | > 50 | > 10 | > 10 | 1 to 10 | 1 to 10 |  | < 0.02 |  |  | 2 to 20 |  |  | 
10 | COc1cccc2[nH]c(C(=O)N3C[C@@H]4CCC[C@@H]4[C@H]3C(=O)N[C@@H](C[C@@H]3CCCNC3=O)C(O)S(=O)(=O)O)cc12 (stereo partly drawn) [Compound 53, sodium (2S)-2-{[(1S,3aR,6aS)-2-(4-methoxy-1H-indole-2-carbonyl)-hexahydro-1H-cyclopenta[c]pyrrol-1-yl]formamido}-1-hydroxy-3-[(3S)-2-oxopiperidin-3-yl]propane-1-sulfonate] | < 1 | 1 to 10 | > 100 | > 10 | > 100 | 0.1 to 1 | ≥ 10 | 0.02 to 0.2 | < 0.02 |  |  |  |  |  | 
11 | CC(C)NC(=O)C(=O)C(C[C@@H]1CCCNC1=O)NC(=O)[C@@H]1[C@H]2CCC[C@H]2CN1C(=O)c1cc2ccccc2[nH]1 (stereo partly drawn) [Compound 18, (1S,3aR,6aS)-2-(1H-indole-2-carbonyl)-N-(4-(isopropylamino)-3,4-dioxo-1-((S)-2-oxopiperidin-3-yl)butan-2-yl)octahydrocyclopenta[c]pyrrole-1-carboxamide] | 1 to 10 | 1 to 10 | > 100 | > 10 | > 100 | 0.1 to 1 | ≥ 10 |  | 0.02 to 0.2 |  |  | 0.2 to 2 |  |  | 
12 | COc1cccc2[nH]c(C(=O)N3C[C@]4(C[C@H]3C(=O)NC(C[C@@H]3CCCNC3=O)C(=O)C(N)=O)CC4(F)F)cc12 (stereo partly drawn) [Compound 46, (3S,6S)—N-(4-amino-3,4-dioxo-1-((S)-2-oxopiperidin-3-yl)butan-2-yl)-1,1-difluoro-5-(4-methoxy-1H-indole-2-carbonyl)-5-azaspiro[2.4]heptane-6-carboxamide] | 10 to 100 | 10 to 100 | > 100 | > 10 | > 10 | 10 to 100 | 1 to 10 |  | 0.02 to 0.2 |  |  | 0.2 to 2 |  |  | 
13 | O=C1NCC[C@H]1C[C@H](NC(=O)[C@@H]1[C@H]2CCC[C@H]2CN1C(=O)c1cc2c(OC(F)F)cc(Cl)cc2[nH]1)C(=O)CO [Compound 126, (1S,3aR,6aS)-2-[6-chloro-4-(difluoromethoxy)-1H-indole-2-carbonyl]-N-[(2S)-4-hydroxy-3-oxo-1-[(3S)-2-oxopyrrolidin-3-yl]butan-2-yl]-hexahydro-1H-cyclopenta[c]pyrrole-1-carboxamide] | 1 to 10 | 1 to 10 | > 50 | > 10 | > 50 | < 0.1 | ≥ 10 |  | < 0.02 |  |  | 2 to 20 |  |  | 
14 | COc1cccc2[nH]c(C(=O)N3CCC4(CC4)C[C@H]3C(=O)N[C@@H](C[C@@H]3CCCNC3=O)C(=O)CO)cc12 [Compound 44] | 10 to 100 | 10 to 100 | > 100 | > 10 | > 10 | 1 to 10 | ≥ 10 |  | 0.02 to 0.2 |  |  |  |  |  | > 10
